Reference: ChEMBL document CHEMBL5316325, “Design and Synthesis of 3-Hydroxy-pyridin-4(1H)-ones-Ciprofloxacin Conjugates as Dual Antibacterial and Antibiofilm Agents against Pseudomonas aeruginosa” (J Med Chem, 2023)
Values after ≈ are worked out from the molar mass of the structure shown.

Legend:
Format in all cases: functional
Pseudomonas aeruginosa [1] = assay: Antibiofilm activity against Pseudomonas aeruginosa PAO1 in ABTGC medium assessed as biofilm biomass at 1/4 times MIC incubated for 24 hrs by crystal violet staining based assay relative to control
Pseudomonas aeruginosa [2] = assay: Antibacterial activity against Pseudomonas aeruginosa ATCC 27853 in MHB medium assessed as bacterial growth inhibition by CLSI based broth microdilution method
Pseudomonas aeruginosa [3] = assay: Antibacterial activity against Pseudomonas aeruginosa PAO1 in MHB medium assessed as bacterial growth inhibition by CLSI based broth microdilution method
Pseudomonas aeruginosa [4] = assay: Antibacterial activity against Pseudomonas aeruginosa FB in MHB medium assessed as bacterial growth inhibition by CLSI based broth microdilution method
Pseudomonas aeruginosa [5] = assay: Antibacterial activity against Pseudomonas aeruginosa 1167 in MHB medium assessed as bacterial growth inhibition by CLSI based broth microdilution method
Pseudomonas aeruginosa [6] = assay: Antibacterial activity against Pseudomonas aeruginosa 1121 in MHB medium assessed as bacterial growth inhibition by CLSI based broth microdilution method
Pseudomonas aeruginosa [7] = assay: Antibacterial activity against Pseudomonas aeruginosa 1129 in MHB medium assessed as bacterial growth inhibition by CLSI based broth microdilution method
Escherichia coli = assay: Antibacterial activity against Escherichia coli ATCC 25922 in MHB medium assessed as bacterial growth inhibition by CLSI based broth microdilution method
Klebsiella pneumoniae = assay: Antibacterial activity against Klebsiella pneumoniae ATCC 700603 in MHB medium assessed as bacterial growth inhibition by CLSI based broth microdilution method
Staphylococcus aureus [8] = assay: Antibacterial activity against Staphylococcus aureus ATCC 25923 in MHB medium assessed as bacterial growth inhibition by CLSI based broth microdilution method
Staphylococcus aureus [9] = assay: Antibacterial activity against methicillin-resistant Staphylococcus aureus ATCC 515992 in MHB medium assessed as bacterial growth inhibition by CLSI based broth microdilution method
Pseudomonas aeruginosa [10] = assay: Antibacterial activity against Pseudomonas aeruginosa PAO1 in ABTGC medium assessed as bacterial growth inhibition
Pseudomonas aeruginosa [11] = assay: Antibiofilm activity against Pseudomonas aeruginosa PAO1 in ABTGC medium assessed as biofilm biomass at 1/2 times MIC incubated for 24 hrs by crystal violet staining based assay relative to control
Pseudomonas aeruginosa [12] = assay: Antibiofilm activity against Pseudomonas aeruginosa PAO1 in ABTGC medium assessed as biofilm biomass at MIC incubated for 24 hrs by crystal violet staining based assay relative to control

| SMILES | Activity (Pseudomonas aeruginosa [1]) | MIC (Pseudomonas aeruginosa [2]) | MIC (Pseudomonas aeruginosa [3]) | MIC (Pseudomonas aeruginosa [4]) | MIC (Pseudomonas aeruginosa [5]) | MIC (Pseudomonas aeruginosa [6]) | MIC (Pseudomonas aeruginosa [7]) | MIC (Escherichia coli) | MIC (Klebsiella pneumoniae) | MIC (Staphylococcus aureus [8]) | MIC (Staphylococcus aureus [9]) | MIC (Pseudomonas aeruginosa [10]) | Activity (Pseudomonas aeruginosa [11]) | Activity (Pseudomonas aeruginosa [12]) |
| --- | --- | --- | --- | --- | --- | --- | --- | --- | --- | --- | --- | --- | --- | --- |
| O=C(CCC(=O)N1CCN(c2cc3c(cc2F)c(=O)c(C(=O)O)cn3C2CC2)CC1)NCc1cc(=O)c(O)c[nH]1 | 19.9% | 7.23 µM (≈ 4 µg/mL) | 1.81 µM (≈ 1 µg/mL) | 7.23 µM (≈ 4 µg/mL) | 3.61 µM (≈ 2 µg/mL) | 3.61 µM (≈ 2 µg/mL) | 7.23 µM (≈ 4 µg/mL) | 0.23 µM (≈ 0.127 µg/mL) | 14.4 µM (≈ 8 µg/mL) | 3.61 µM (≈ 2 µg/mL) | > 200 µM | 14.4 µM (≈ 8 µg/mL) | 98.8% | 169.8% |
| Cc1cc(=O)c(O)c(CNC(=O)CCC(CCC(=O)NCc2c(O)c(=O)cc(C)n2C)(CCC(=O)NCc2c(O)c(=O)cc(C)n2C)NC(=O)CCC(=O)N2CCN(c3cc4c(cc3F)c(=O)c(C(=O)O)cn4C3CC3)CC2)n1C | 211.1% | 7.2 µM (≈ 8 µg/mL) | 14.4 µM (≈ 16 µg/mL) | 28.8 µM (≈ 32 µg/mL) | 14.4 µM (≈ 16 µg/mL) | 28.8 µM (≈ 32 µg/mL) | 57.6 µM (≈ 64 µg/mL) | 0.22 µM (≈ 0.244 µg/mL) | 14.4 µM (≈ 16 µg/mL) | 14.4 µM (≈ 16 µg/mL) | > 200 µM | 115 µM (≈ 128 µg/mL) | 20.9% | 20.7% |
| Cc1cc(=O)c(O)c(CNC(=O)CCCC(=O)N2CCN(c3cc4c(cc3F)c(=O)c(C(=O)O)cn4C3CC3)CC2)n1C | 84.1% | 0.86 µM (≈ 0.512 µg/mL) | 6.72 µM (≈ 4 µg/mL) | 13.4 µM (≈ 8 µg/mL) | 6.72 µM (≈ 4 µg/mL) | 6.72 µM (≈ 4 µg/mL) | 13.4 µM (≈ 8 µg/mL) | 0.21 µM (≈ 0.125 µg/mL) | 26.9 µM (≈ 16 µg/mL) | 53.7 µM (≈ 32 µg/mL) | > 200 µM | 128 µM (≈ 76.2 µg/mL) | 116.8% | 39.5% |
| Cc1cc(=O)c(O)cn1CCCn1cc(CCC(=O)N2CCN(c3cc4c(cc3F)c(=O)c(C(=O)O)cn4C3CC3)CC2)nn1 | 97.6% | 103 µM (≈ 64 µg/mL) | 103 µM (≈ 64 µg/mL) | 103 µM (≈ 64 µg/mL) | 103 µM (≈ 64 µg/mL) | 103 µM (≈ 64 µg/mL) | 103 µM (≈ 64 µg/mL) | 51.6 µM (≈ 32 µg/mL) | > 200 µM | > 200 µM | > 200 µM | > 200 µM | 127.7% | 71.7% |
| Cn1cc(O)c(=O)cc1Cn1cc(CCC(=O)N2CCN(c3cc4c(cc3F)c(=O)c(C(=O)O)cn4C3CC3)CC2)nn1 | 99.4% | 108 µM (≈ 64 µg/mL) | 27.1 µM (≈ 16 µg/mL) | 108 µM (≈ 64 µg/mL) | 54.1 µM (≈ 32 µg/mL) | 108 µM (≈ 64 µg/mL) | 108 µM (≈ 64 µg/mL) | 3.38 µM (≈ 2 µg/mL) | > 200 µM | > 200 µM | > 200 µM | > 200 µM | 133.7% | 52.1% |
| Cc1cc(=O)c(O)c(CNC(=O)CCCCCCC(=O)N2CCN(c3cc4c(cc3F)c(=O)c(C(=O)O)cn4C3CC3)CC2)n1C | 141.1% | > 200 µM | > 200 µM | > 200 µM | > 200 µM | > 200 µM | > 200 µM | 6.27 µM (≈ 4 µg/mL) | > 200 µM | 50.2 µM (≈ 32 µg/mL) | > 200 µM | 128 µM (≈ 81.6 µg/mL) | 114.9% | 99.9% |
| Cn1cc(O)c(=O)cc1CNC(=O)CCCCC(=O)N1CCN(c2cc3c(cc2F)c(=O)c(C(=O)O)cn3C2CC2)CC1 | 24.9% | 3.36 µM (≈ 2 µg/mL) | 0.84 µM (≈ 0.5 µg/mL) | 3.36 µM (≈ 2 µg/mL) | 1.68 µM (≈ 1 µg/mL) | 1.68 µM (≈ 1 µg/mL) | 6.72 µM (≈ 4 µg/mL) | 0.1 µM (≈ 0.0596 µg/mL) | 6.72 µM (≈ 4 µg/mL) | 13.4 µM (≈ 8 µg/mL) | > 200 µM | 6.72 µM (≈ 4 µg/mL) | 110.3% | 86.4% |
| Cc1cc(=O)c(O)c(CNC(=O)CCC(CCC(=O)NCc2c(O)c(=O)cc(C)n2C)(CCC(=O)NCc2c(O)c(=O)cc(C)n2C)NC(=O)CCCC(=O)N2CCN(c3cc4c(cc3F)c(=O)c(C(=O)O)cn4C3CC3)CC2)n1C | 26.1% | 7.11 µM (≈ 8 µg/mL) | 1.78 µM (≈ 2 µg/mL) | 3.55 µM (≈ 3.99 µg/mL) | 1.78 µM (≈ 2 µg/mL) | 3.55 µM (≈ 3.99 µg/mL) | 7.11 µM (≈ 8 µg/mL) | 0.22 µM (≈ 0.248 µg/mL) | 14.2 µM (≈ 16 µg/mL) | 14.2 µM (≈ 16 µg/mL) | > 200 µM | 14.2 µM (≈ 16 µg/mL) | 79.3% | 12.7% |
| Cc1cc(=O)c(O)c(CNC(=O)CCC(CCC(=O)NCc2c(O)c(=O)cc(C)n2C)(CCC(=O)NCc2c(O)c(=O)cc(C)n2C)NC(=O)CCCCC(=O)N2CCN(c3cc4c(cc3F)c(=O)c(C(=O)O)cn4C3CC3)CC2)n1C | 158.1% | 7.02 µM (≈ 8 µg/mL) | 3.51 µM (≈ 4 µg/mL) | 14 µM (≈ 16 µg/mL) | 7.02 µM (≈ 8 µg/mL) | 14 µM (≈ 16 µg/mL) | 28.1 µM (≈ 32 µg/mL) | 0.22 µM (≈ 0.251 µg/mL) | 14 µM (≈ 16 µg/mL) | 14 µM (≈ 16 µg/mL) | > 200 µM | 56.2 µM (≈ 64 µg/mL) | 9.6% | 15.1% |
| O=C(CCC(=O)N1CCN(c2cc3c(cc2F)c(=O)c(C(=O)O)cn3C2CC2)CC1)NCc1cc(=O)c(O)cn1O | 48.9% | 7.02 µM (≈ 4 µg/mL) | 1.76 µM (≈ 1 µg/mL) | 7.02 µM (≈ 4 µg/mL) | 3.51 µM (≈ 2 µg/mL) | 7.02 µM (≈ 4 µg/mL) | 7.02 µM (≈ 4 µg/mL) | 0.22 µM (≈ 0.125 µg/mL) | 14.1 µM (≈ 8 µg/mL) | 28.1 µM (≈ 16 µg/mL) | > 200 µM | 14.1 µM (≈ 8 µg/mL) | 54.2% | 137% |
| Cc1cc(=O)c(O)c(CNC(=O)CCCCC(=O)N2CCN(c3cc4c(cc3F)c(=O)c(C(=O)O)cn4C3CC3)CC2)n1C | 27% | 3.28 µM (≈ 2 µg/mL) | 1.64 µM (≈ 1 µg/mL) | 3.28 µM (≈ 2 µg/mL) | 3.28 µM (≈ 2 µg/mL) | 3.28 µM (≈ 2 µg/mL) | 6.56 µM (≈ 4 µg/mL) | 0.05 µM (≈ 0.0305 µg/mL) | 6.56 µM (≈ 4 µg/mL) | 13.1 µM (≈ 8 µg/mL) | > 200 µM | 13.1 µM (≈ 8 µg/mL) | 86.3% | 23.3% |
| Cn1cc(O)c(=O)cc1CNC(=O)CCCC(=O)N1CCN(c2cc3c(cc2F)c(=O)c(C(=O)O)cn3C2CC2)CC1 | 23.4% | 3.44 µM (≈ 2 µg/mL) | 0.86 µM (≈ 0.5 µg/mL) | 3.44 µM (≈ 2 µg/mL) | 1.72 µM (≈ 1 µg/mL) | 3.44 µM (≈ 2 µg/mL) | 6.88 µM (≈ 4 µg/mL) | 0.11 µM (≈ 0.064 µg/mL) | 6.72 µM (≈ 3.91 µg/mL) | 13.8 µM (≈ 8 µg/mL) | > 200 µM | 13.8 µM (≈ 8 µg/mL) | 189% | 75.3% |
| Cc1cc(=O)c(O)cn1CCCNC(=O)CCC(=O)N1CCN(c2cc3c(cc2F)c(=O)c(C(=O)O)cn3C2CC2)CC1 | 116.3% | 6.72 µM (≈ 4 µg/mL) | 3.36 µM (≈ 2 µg/mL) | 3.36 µM (≈ 2 µg/mL) | 3.36 µM (≈ 2 µg/mL) | 6.72 µM (≈ 4 µg/mL) | 6.36 µM (≈ 3.79 µg/mL) | 0.42 µM (≈ 0.25 µg/mL) | 13.4 µM (≈ 8 µg/mL) | 6.72 µM (≈ 4 µg/mL) | > 200 µM | 53.7 µM (≈ 32 µg/mL) | 78.2% | 92.1% |
| Cn1cc(O)c(=O)cc1CNC(=O)CCC(=O)N1CCN(c2cc3c(cc2F)c(=O)c(C(=O)O)cn3C2CC2)CC1 | 29.2% | 1.76 µM (≈ 0.999 µg/mL) | 0.88 µM (≈ 0.499 µg/mL) | 1.76 µM (≈ 0.999 µg/mL) | 0.88 µM (≈ 0.499 µg/mL) | 1.76 µM (≈ 0.999 µg/mL) | 3.52 µM (≈ 2 µg/mL) | 0.06 µM (≈ 0.0341 µg/mL) | 3.52 µM (≈ 2 µg/mL) | 7.05 µM (≈ 4 µg/mL) | > 200 µM | 7.05 µM (≈ 4 µg/mL) | 110.3% | 55.3% |
